SMILES strings stand for the structures. Values joined by “and” are separate entries in the source; they are usually repeats but may differ in a detail not shown here. Equal values may be shown once.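 These data come from cells grown in 96-well plates and exposed to compound for 48 hours at five concentrations. At the GI50, growth is halved. TGI is the concentration that stops growth completely.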 Numbered stars: 1 amine (or outer) side, 2 acyl side, 3 side chain; on linkers, the order of the positions; unused ones are H or OH. Bridge positions count the residues as written; N and C are the ends. Square brackets hold non-standard residues; d marks the D form. Peptide text beside a SMILES is read from it. I, II: the chains in the order shown. Actinocin(1to9) = Cc1c2oc3c(C)ccc(C(=O)[*:2])c3nc-2c(C(=O)[*:1])c(N)c1=O; NMeV = CN[CH](C(=O)O)C(C)C; Sar = CNCC(=O)O Where only a bound is given, the exact number is not on record here.

Common to all, as to experiment: growth of human tumour cells (NCI), 48 h
In experiment [1] the test system is A498 renal.
The subject of experiment [2] is SK-OV-3 ovarian.
In experiment [3] the test system is SR leukemia.
The subject of experiment [4] is MCF7 breast.
Experiment [5] relates to NCI-H23 lung.
Experiment [6] relates to UACC-257 melanoma.
Experiment [7] concerns HOP-92 NSCLC.
Experiment [8] concerns SK-MEL-28 melanoma.
For experiment [9], the system named is SF-539 CNS.
The subject of experiment [10] is KM12 colon.

On to `CC(=O)Nc1nc(C)c(-c2cc3c(c(S(C)(=O)=O)c2)C(=O)N([C@@H](C)C2CC2)C3)s1`, for which the GI50 in [1] was 19 µM; in [2] it was 22.2 µM; in experiment [3], 26.8 µM; in experiment [4], 23.7 µM; in experiment [5], 31.1 µM; in [6], 37.7 µM. In addition, the GI50 in experiment [7] is 15.9 µM; in experiment [8], 28.1 µM; in experiment [9] it was 24.2 µM; in experiment [10] it was 85 µM. For the same compound, the TGI is 53.5 µM in experiment [1]; 56.4 µM in [2]; above 100 µM in experiment [3]; above 100 µM in experiment [4]; above 100 µM in experiment [5]; above 100 µM in experiment [6]. Further, the TGI in experiment [7] is 64.1 µM; in experiment [8], above 100 µM; in experiment [9], above 100 µM; in experiment [10], above 100 µM.
`NC(=O)N/N=C/c1ccccc1O`: the TGI in [1], in [2], in experiment [3], in experiment [4], in experiment [5] and in experiment [6] was above 100 µM throughout. The TGI in experiment [7], in experiment [8], in experiment [9] and in [10] was above 100 µM in each case.
Take `CCO/N=C(/CC)c1ccc(Br)s1`: the TGI in experiment [1], in experiment [2], in experiment [3], in experiment [4], in experiment [5] and in [6] was above 100 µM each time. For the same compound, the TGI in experiment [7], in [8], in experiment [9] and in experiment [10] was above 100 µM in each case.
As for `Cc1cccc2c(=O)c3c(O)cc4c(c3n(C)c12)C=CC(C)(C)O4`, the TGI in [1] is above 100 µM; in experiment [2] it was above 100 µM; in experiment [3], 54.6 µM; in experiment [4] it was above 100 µM; in experiment [5], above 100 µM; in experiment [6], above 100 µM. The TGI in experiment [7], in [8], in experiment [9] and in [10] was above 100 µM throughout.
With `CCCCn1c2c(n(CCCC)c1=[Se])-c1c(n(CCCC)c(=[Se])n1CCCC)S[Se][Se]S2`, the TGI was above 100 µM in experiment [1]; 58 µM in experiment [2]; above 100 µM in experiment [3]; above 69 µM in [4]; 70.4 µM in experiment [5]; above 100 µM in experiment [6]. Moreover, the TGI in [7] was 5.93 µM; in [8], above 100 µM; in experiment [9], 42.8 µM; in experiment [10], above 59.3 µM.
For `N=c1oc2ccc(Cl)cc2cc1C(=O)NC1CCCCC1`, the TGI in experiment [1], in [2], in experiment [3], in experiment [4], in experiment [5] and in [6] was above 100 µM each time. Besides, the TGI in experiment [7], in [8], in experiment [9] and in experiment [10] was above 100 µM throughout.
For `CC(=O)NC1=CC(=O)C=C(Cl)C1=O`, the TGI in experiment [1] was above 100 µM; in experiment [2] it was above 100 µM; in [3], 48.3 µM; in experiment [4], 82.4 µM; in experiment [5] it was above 100 µM; in experiment [6], above 100 µM. In addition, the TGI in [7], in experiment [8], in experiment [9] and in [10] was above 100 µM each time.
Regarding `NC(=O)N=Nc1c2ccccc2n2[nH]ccc12`, the TGI in [1] is above 100 µM; in experiment [2], above 100 µM; in [3] it was above 100 µM; in experiment [4], 66.7 µM; in experiment [5] it was above 100 µM; in experiment [6], above 100 µM. Besides, the TGI in experiment [7], in experiment [8], in [9] and in experiment [10] was above 100 µM throughout.
Take `COc1ccc(-c2c(C#N)cnc(N)c2-c2nc3cc(C)c(C)cc3[nH]2)cc1`: the GI50 is 10.7 µM in [1]; 4.84 µM in [2]; 5.64 µM in experiment [3]; 6.34 µM in experiment [4]; 5.37 µM in experiment [5]; 52 µM in [6]. In addition, the GI50 was 2.65 µM in experiment [7], 17.2 µM in [8], 11.5 µM in [9] and 3.47 µM in experiment [10]. Moreover, the TGI is 63.6 µM in experiment [1]; 18.4 µM in experiment [2]; above 100 µM in [3]; above 100 µM in experiment [4]; 33.3 µM in [5]; above 100 µM in experiment [6]. Also, the TGI is 16.3 µM in experiment [7], above 100 µM in [8], 41.9 µM in [9] and above 100 µM in experiment [10].
Take `Cc1cn(C2CC(O)C(Cn3nncc3Cn3ccc(=O)[nH]c3=O)O2)c(=O)[nH]c1=O` (stereo not given): the TGI in [1], in [2], in experiment [3], in experiment [4], in experiment [5] and in [6] was above 100 µM throughout. Further, the TGI in experiment [7], in [8], in [9] and in experiment [10] was above 100 µM in each case.
With `Nc1c(O)c(C(=O)O)cc2ccccc12`, the TGI is above 100 µM in experiment [1]; above 100 µM in experiment [2]; above 100 µM in experiment [3]; 24.2 µM in experiment [4]; 65.3 µM in [5]; 38.4 µM in experiment [6]. Besides, the TGI in experiment [7], in experiment [8], in experiment [9] and in experiment [10] was above 100 µM throughout.
On to `COc1cc2c3c4c1OCc1c5c(cc(c1-4)CC3[N+](C)(C)CC2)OCO5` (stereo not given), for which the TGI in experiment [1], in [2], in experiment [3], in experiment [4], in [5] and in experiment [6] was above 100 µM each time. Besides, the TGI in experiment [7] was above 100 µM; in [8], above 100 µM; in experiment [9] it was above 96.6 µM; in experiment [10], above 100 µM.
Consider `COc1ccc(-c2cc(-c3ccccc3)nc(N)n2)c(O)c1`, for which the TGI is above 100 µM in experiment [1]; above 100 µM in experiment [2]; above 26.2 µM in experiment [3]; above 100 µM in experiment [4]; above 100 µM in experiment [5]; above 100 µM in [6]. Also, the TGI in [7], in experiment [8], in experiment [9] and in experiment [10] was above 100 µM each time.
`N#C/C=C\c1ccc(-c2cc(C(F)(F)F)cc(C(F)(F)F)c2)o1`: the TGI in experiment [1] was 61.3 µM; in experiment [2], above 100 µM; in experiment [3] it was 40.7 µM; in experiment [4] it was above 100 µM; in [5] it was 30.1 µM; in [6], above 100 µM. The TGI in [7] is 50 µM; in [8], above 100 µM; in experiment [9], 26.6 µM; in [10], above 100 µM.
For `CCCCCCCCC(=O)NCCN(CCN)C(=O)CCCCCCCC`, the TGI in experiment [1] was 43.8 µM; in experiment [2] it was 29.9 µM; in [3], 13.8 µM; in [4], 17.5 µM; in experiment [5], 32.2 µM; in [6], 33.7 µM. In addition, the TGI in experiment [7] amounted to 37.1 µM; in [8] it was 30.5 µM; in experiment [9], 15.3 µM; in experiment [10] it was 6.01 µM.
As to `CCCC(=O)Oc1cc(OC(=O)CCC)c2c(C)cc(=O)oc2c1`, the TGI in experiment [1] is above 100 µM; in [2], above 100 µM; in [3], 76.9 µM; in [4], above 100 µM; in experiment [5], above 100 µM; in [6], above 100 µM. For the same compound, the TGI in [7], in experiment [8], in [9] and in experiment [10] was above 100 µM throughout.
Turning to `CCC(C)C1NC(=O)C(NC(=O)c2c3nc4c(C(=O)NC5C(=O)NC(C(C)C)C(=O)N6CCCC6C(=O)N(C)CC(=O)N(C)C(C(C)C)C(=O)OC5C)ccc(C)c4oc-3c(C)c(=O)c2N)C(C)OC(=O)C(C(C)C)N(C)C(=O)CN(C)C(=O)C2CCCN2C1=O` (stereo not given) (I: TIP[Sar][NMeV] / II: TVP[Sar][NMeV]; ester I:1-I:C, II:1-II:C; linker I:N-II:N via Actinocin(1to9); configuration not given here), the TGI was 0.00433 µM in experiment [1]; 13.2 µM in experiment [2]; 0.404 µM in experiment [3]; above 100 µM in experiment [4]; 0.0553 µM and 0.0126 µM in experiment [5]; 0.0266 µM in experiment [6]. For the same compound, the TGI in experiment [7] amounted to 0.0476 µM; in experiment [8] it was 0.0409 µM; in experiment [9], 0.107 µM; in experiment [10] it was 0.191 µM.
As for `C=[N+](CNC(=O)CNC(=O)C(Cc1ccccc1)NC(=O)OC(C)(C)C)C(=O)CNC(=O)C(Cc1ccccc1)NC(=O)OC(C)(C)C` (stereo not given), the TGI in [1], in [2], in [3], in experiment [4], in experiment [5] and in experiment [6] was above 100 µM each time. The TGI in experiment [7], in [8], in [9] and in experiment [10] was above 100 µM throughout.
In the case of `CC(=O)c1cccc(NC(=O)/C(=N\NC(=S)NN)C2C(=O)Nc3ccccc3S2=O)c1` (stereo not given), the TGI in [1], in experiment [2], in experiment [3], in [4], in [5] and in experiment [6] was above 100 µM each time. The TGI in experiment [7], in [8], in experiment [9] and in experiment [10] was above 100 µM in each case.

Source of the values: PubChem BioAssay (NCI).
